Source: EP2975030B1, “DIHYDROPYRIDAZINE-3,5-DIONE DERIVATIVE” (Chugai Seiyaku Kabushiki Kaisha, priority 2013, dated 2014)

System: rat small-intestinal brush border membrane vesicles
Test: Inhibitory effect on 33PO4 uptake into rat small-intestinal brush border membrane vesicles (rapid filtration method)
Assay type: biochemical, Wistar female rat
Conditions: 1 µM test compound; 33PO4 uptake into rat small-intestinal BBMVs, 60 seconds
Summary of the method: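 33PO4 uptake into rat small-intestinal brush border membrane vesicles measured by rapid filtration. Reactions were stopped with ice-cold buffer (110 mM NaCl, 1 mM KH2PO4, 10 mM HEPES pH 7.5), filtered and washed. Vesicle-associated radioactivity was counted by liquid scintillation.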

Compound	Rate of uptake inhibition (%) (1 µM)
CN(CCOCCOCCOCCOCCOc1ccc(CN2C(=O)C(C(=O)Nc3ccc(C(F)(F)F)cc3-c3cc(C(F)(F)F)ncn3)=C(O)C3(CCCC3)N2C)c(F)c1F)C[C@@H](O)[C@H](O)[C@@H](O)[C@@H](O)CO [Example 421, 7-[[2,3-Difluoro-4-[2-[2-[2-[2-[2-[methyl-[(2R,3S,4S,5S)-2,3,4,5,6-pentahydroxyhexyl]amino]ethoxy]ethoxy]ethoxy]ethoxy]ethoxy]phenyl]methyl]-10-hydroxy-6-methyl-8-oxo-N-[4-(trifluoromethyl)-2-[6-(trifluoromethyl)pyrimidin-4-yl]phenyl]-6,7-diazaspiro[4.5]dec-9-ene-9-carboxamide]	24
(4aS)-1-[(2,3-Difluorophenyl)methyl]-6,6-difluoro-4-hydroxy-N-[5-methyl-2-(trifluoromethyl)furan-3-yl]-2-oxo-5,7-dihydro-4aH-pyrrolo[1,2-b]pyridazine-3-carboxamide [Example 5]	54
Cc1cc(NC(=O)C2=C(O)[C@]3(C)CCCN3N(Cc3cccc(F)c3)C2=O)c(C(F)(F)F)o1 [Example 8]	37
CSc1ccc(-c2cc(C(F)(F)F)ccc2NC(=O)C2=C(O)[C@@]3(C)CCCN3N(Cc3ccc(OCCCCOC[C@H](O)CO)c(F)c3F)C2=O)cn1 [Example 120]	66
CN1[C@@H](C(C)(C)C)C(O)=C(C(=O)Nc2ccc(Cl)cc2-c2cc(C#N)ncn2)C(=O)N1Cc1ccc(OCCN2CCOCC2)c(F)c1F [Example 272]	43
C[C@]12CCCN1N(Cc1cc(F)c(F)c(F)c1)C(=O)C(C(=O)Nc1cc(F)c(Br)c(F)c1)=C2O [Example 197]	82
CN(CCO)CCOc1ccc(CN2C(=O)C(C(=O)Nc3ccc(C(F)(F)F)cc3-c3cc(C(F)(F)F)ncn3)=C(O)C3(CCC3)N2C)c(F)c1F [Example 347]	28
CSc1cc(-c2cc(C(F)(F)F)ccc2NC(=O)C2=C(O)[C@@]3(C)CCCN3N(Cc3cccc(F)c3F)C2=O)cnc1C#N [Example 113]	84
COC(=O)CN(C)CCOc1ccc(CN2C(=O)C(C(=O)Nc3ccc(C(F)(F)F)cc3-c3cc(C(F)(F)F)ncn3)=C(O)C3(CCCC3)N2C)c(F)c1F [Example 368]	26
C[C@]12CCCN1N(Cc1cccc(OC(F)F)c1)C(=O)C(C(=O)Nc1ccc(C(F)(F)F)cc1-c1cc(C(F)(F)F)ncn1)=C2O [Example 177]	85
CN1N(Cc2cccc(F)c2F)C(=O)C(C(=O)Nc2ccc(C(F)(F)F)nc2-c2ccc(C(F)(F)F)nc2)=C(O)C1(C)C [Example 304]	51
1-[(3-Fluorophenyl)methyl]-4-hydroxy-4a-methyl-N-[5-methyl-2-(trifluoromethyl)furan-3-yl]-2-oxo-5,6,7,8-tetrahydropyrido[1,2-b]pyridazine-3-carboxamide [Example 18]	12
C[C@]12CCCN1N(Cc1c(F)cccc1Cl)C(=O)C(C(=O)Nc1ccc(C(F)(F)F)cc1-c1cc(C(F)(F)F)ncn1)=C2O [Example 210]	71
C[C@]12CCCN1N(Cc1ccccc1C#N)C(=O)C(C(=O)Nc1ccc(C(F)(F)F)cc1-c1cc(C(F)(F)F)ncn1)=C2O [Example 178]	81
CN1N(Cc2ccc(OCCCCCC(=O)O)c(F)c2F)C(=O)C(C(=O)Nc2ccc(C(F)(F)F)cc2-c2cc(C(F)(F)F)ncn2)=C(O)C12CCCC2 [Example 334]	22
CCC1(CC)C(O)=C(C(=O)Nc2ccc(Cl)cc2-c2cc(C(F)(F)F)ncn2)C(=O)N(Cc2ccc(OCCN3CCOCC3)c(F)c2F)N1C [Example 292]	44

Compound	Rate of uptake inhibition (%) (1 µM)
COCCN(C)CCOCCOCCOCCOc1ccc(CN2C(=O)C(C(=O)Nc3ccc(C(F)(F)F)cc3-c3cc(C(F)(F)F)ncn3)=C(O)C3(CCCC3)N2C)c(F)c1F [Example 431]	26
C[C@]12CCCN1N(Cc1cccc(F)c1F)C(=O)C(C(=O)Nc1cc(F)c(Br)c(F)c1)=C2O [Example 29]	75
CN1N(Cc2ccc(OCCN3CCOCC3)c(F)c2F)C(=O)C(C(=O)Nc2ccc(Cl)cc2-c2ccc(C(F)(F)F)nc2)=C(O)C12CCCC2 [Example 288]	61
C[C@]12CCCN1N(Cc1ccccc1F)C(=O)C(C(=O)Nc1ccc(C(F)(F)F)cc1-c1ccc(C(F)(F)F)nc1)=C2O [Example 200]	80
C[C@]12CCCN1N(Cc1c(F)cc(C#CCCCCCOC[C@H](O)[C@@H](O)CO)cc1F)C(=O)C(C(=O)Nc1ccc(C(F)(F)F)cc1-c1ccc(C(F)(F)F)nc1)=C2O [Example 124]	81
CC(C)(C)[C@H]1C(O)=C(C(=O)Nc2cc(F)c(Br)c(F)c2)C(=O)N(Cc2cccc(F)c2F)N1CC(F)(F)F [Example 248]	45
CN1N(Cc2ccc(OCCCCCOC[C@H](O)CO)c(F)c2F)C(=O)C(C(=O)Nc2ccc(C(F)(F)F)cc2-c2cc(C(F)(F)F)ncn2)=C(O)C12CCC2 [Example 391]	42
C[C@]12CCCN1N(Cc1cccc(F)c1F)C(=O)C(C(=O)Nc1ccc(Br)cc1-c1ccc(Cl)nc1)=C2O [Example 122, (4aR)-N-[4-Bromo-2-(6-chloropyridin-3-yl)phenyl]-1-[(2,3-difluorophenyl)methyl]-4-hydroxy-4a-methyl-2-oxo-6,7-dihydro-5H-pyrrolo[1,2-b]pyridazine-3-carboxamide]	82
CN1N(Cc2ccc(OCCOCCOCCOCCC(=O)NCC(O)CO)c(F)c2F)C(=O)C(C(=O)Nc2ccc(C(F)(F)F)cc2-c2cc(C(F)(F)F)ncn2)=C(O)C12CCCC2 (centres unmarked) [Example 424]	17
C[C@]12CCCN1N(Cc1ccc(C#CCN3CCCC3=O)c(F)c1F)C(=O)C(C(=O)Nc1ccc(Br)c(F)c1)=C2O [Example 131]	87
C[C@]12CCCN1N(Cc1ccc(Cl)cc1)C(=O)C(C(=O)Nc1cc(F)c(Br)c(F)c1)=C2O [Example 223]	77
CN1N(Cc2ccc(OCCN3CCN(S(C)(=O)=O)CC3)c(F)c2F)C(=O)C(C(=O)Nc2ccc(C(F)(F)F)cc2-c2cc(C(F)(F)F)ncn2)=C(O)C12CCCC2 [Example 379]	137
C[C@]12CCCN1N(Cc1cccc(F)c1F)C(=O)C(C(=O)Nc1ccc(C(F)(F)F)cc1-c1cc(C(F)(F)F)ncn1)=C2O [Example 21, (4aR)-1-[(2,3-Difluorophenyl)methyl]-4-hydroxy-4a-methyl-2-oxo-N-[4-(trifluoromethyl)-2-[6-(trifluoromethyl)pyrimidin-4-yl]phenyl]-6,7-dihydro-5H-pyrrolo[1,2-b]pyridazine-3-carboxamide]	61
CC(C)[C@@H]1C(O)=C(C(=O)Nc2ccc(Cl)cc2-c2cc(C(F)(F)F)ncn2)C(=O)N(Cc2cccc(F)c2F)N1C [Example 250]	52
CN1N(Cc2ccc(OCCCCOCCO)c(F)c2F)C(=O)C(C(=O)Nc2ccc(C(F)(F)F)cc2-c2cc(C(F)(F)F)ncn2)=C(O)C12CCCC2 [Example 396]	38
CN1N(Cc2cccc(F)c2F)C(=O)C(C(=O)Nc2ccc(Cl)cc2-c2cc(C(F)(F)F)ncn2)=C(O)C12CCCC2 [Example 261]	77
